Data set [1] in a line: Displacement of [3H]rolipram from PDE4 by RBA. (In a radioligand displacement assay an active substance lowers the binding of a labelled ligand.)
Data set [2] in a line: Inhibition of PDE4.
For a further data set, the system named is Blood. As to the kind of experiment: Inhibition of TNFalpha release in human whole blood. It is filed as functional, tissue-based.
Data set [3] can be described thus: Cmax in ferret. It is filed as ADME, organism-based, Mustela putorius furo. Particulars: in vivo.
Data set [4] in a line: Inhibition of PDE1.
Data set [5] can be described thus: Inhibition of PDE3.
Data set [6] in a line: Inhibition of PDE5.
The nature of data set [7]: Oral bioavailability in rat. Particulars: in vivo. The data set is classed as ADME, organism-based.
The test system of the next data set is Cavia porcellus. As to the kind of experiment: Inhibition of eosinophil infiltration in guinea pig at 30 umol/kg, ip. The data set is classed as functional.
The nature of data set [8]: Binding affinity to PDE4 catalytic domain.
Data set [9] concerns the target T1, 3',5'-cyclic-AMP phosphodiesterase 4D (Homo sapiens, UniProt Q08499). As to the kind of experiment: Inhibition of PDE4D3.
The target of data set [10] is 3',5'-cyclic-AMP phosphodiesterase 4B (Homo sapiens) (UniProt Q07343). As to the kind of experiment: Inhibition of PDE4B.
A short description of data set [11]: Selectivity for PDE4B over PDE4D2.
A short description of data set [12]: Selectivity for PDE4B over PDE4A.
Data set [13] can be described thus: Selectivity for PDE4D3 over PDE4A.
Data set [14] has as its target T1, 3',5'-cyclic-AMP phosphodiesterase 4D. The experiment in a line: Inhibition of PDE4D5.
A short description of data set [15]: Selectivity for PDE4D5 over PDE4A.
The nature of data set [16]: Selectivity for PDE4D5 over PDE4D2.
The nature of data set [17]: Selectivity for PDE4D3 over PDE4D2.
Data set [18] is described as follows: Displacement of [3H]rolipram from PDE4 at 10 uM by RBA.
Data set [19] deals with 3',5'-cyclic-AMP phosphodiesterase 4A (Homo sapiens, UniProt P27815). As to the kind of experiment: Inhibition of GST-tagged PDE4A.
Data set [20] can be described thus: Inhibition of PDE4 at 200 uM.

T1 sequence (Q08499 whole entry): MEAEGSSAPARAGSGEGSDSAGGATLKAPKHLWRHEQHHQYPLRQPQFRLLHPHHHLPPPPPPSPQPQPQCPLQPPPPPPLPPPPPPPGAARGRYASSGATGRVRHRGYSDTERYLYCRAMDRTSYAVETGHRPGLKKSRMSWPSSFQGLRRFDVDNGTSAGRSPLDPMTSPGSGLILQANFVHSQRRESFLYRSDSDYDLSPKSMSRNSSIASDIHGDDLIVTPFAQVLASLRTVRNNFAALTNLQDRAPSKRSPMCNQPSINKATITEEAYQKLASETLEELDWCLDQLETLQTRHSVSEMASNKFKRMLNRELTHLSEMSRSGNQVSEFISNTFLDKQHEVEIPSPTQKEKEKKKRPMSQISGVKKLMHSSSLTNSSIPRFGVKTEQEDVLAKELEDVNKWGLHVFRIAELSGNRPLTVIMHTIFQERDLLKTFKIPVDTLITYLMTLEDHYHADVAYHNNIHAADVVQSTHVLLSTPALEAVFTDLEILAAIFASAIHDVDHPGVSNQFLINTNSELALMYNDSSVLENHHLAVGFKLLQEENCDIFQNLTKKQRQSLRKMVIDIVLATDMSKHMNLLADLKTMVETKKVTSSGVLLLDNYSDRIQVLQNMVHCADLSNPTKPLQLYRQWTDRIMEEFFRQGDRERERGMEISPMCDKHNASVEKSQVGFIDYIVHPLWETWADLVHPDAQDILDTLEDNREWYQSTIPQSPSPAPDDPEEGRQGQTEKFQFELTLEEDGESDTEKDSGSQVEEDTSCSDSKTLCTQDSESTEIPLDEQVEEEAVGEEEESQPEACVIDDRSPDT
Chain of 3',5'-cyclic-AMP phosphodiesterase 4A (P27815 whole entry): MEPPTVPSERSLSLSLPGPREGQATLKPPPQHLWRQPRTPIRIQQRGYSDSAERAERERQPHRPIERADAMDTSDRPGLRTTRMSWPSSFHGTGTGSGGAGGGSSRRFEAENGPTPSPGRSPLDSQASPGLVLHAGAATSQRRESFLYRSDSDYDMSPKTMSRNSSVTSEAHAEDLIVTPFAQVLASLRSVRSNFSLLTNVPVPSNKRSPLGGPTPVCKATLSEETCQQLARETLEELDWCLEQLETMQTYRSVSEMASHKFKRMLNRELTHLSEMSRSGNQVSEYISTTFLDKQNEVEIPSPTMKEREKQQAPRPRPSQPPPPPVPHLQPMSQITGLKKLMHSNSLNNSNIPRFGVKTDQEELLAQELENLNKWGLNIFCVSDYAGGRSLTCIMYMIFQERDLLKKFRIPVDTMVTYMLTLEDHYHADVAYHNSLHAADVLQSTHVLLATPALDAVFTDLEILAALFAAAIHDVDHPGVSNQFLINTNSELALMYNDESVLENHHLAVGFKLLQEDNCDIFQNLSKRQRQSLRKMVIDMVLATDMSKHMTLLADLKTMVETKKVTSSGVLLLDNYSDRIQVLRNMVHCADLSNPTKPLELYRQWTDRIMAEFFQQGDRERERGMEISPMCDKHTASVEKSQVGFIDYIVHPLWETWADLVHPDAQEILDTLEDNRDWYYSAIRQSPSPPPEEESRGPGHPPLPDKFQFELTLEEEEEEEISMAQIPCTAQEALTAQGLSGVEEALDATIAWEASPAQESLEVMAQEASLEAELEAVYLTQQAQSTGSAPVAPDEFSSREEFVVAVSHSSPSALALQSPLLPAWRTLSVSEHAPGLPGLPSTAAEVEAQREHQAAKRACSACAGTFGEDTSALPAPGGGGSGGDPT
Chain of 3',5'-cyclic-AMP phosphodiesterase 4B (Homo sapiens) (Q07343 whole entry): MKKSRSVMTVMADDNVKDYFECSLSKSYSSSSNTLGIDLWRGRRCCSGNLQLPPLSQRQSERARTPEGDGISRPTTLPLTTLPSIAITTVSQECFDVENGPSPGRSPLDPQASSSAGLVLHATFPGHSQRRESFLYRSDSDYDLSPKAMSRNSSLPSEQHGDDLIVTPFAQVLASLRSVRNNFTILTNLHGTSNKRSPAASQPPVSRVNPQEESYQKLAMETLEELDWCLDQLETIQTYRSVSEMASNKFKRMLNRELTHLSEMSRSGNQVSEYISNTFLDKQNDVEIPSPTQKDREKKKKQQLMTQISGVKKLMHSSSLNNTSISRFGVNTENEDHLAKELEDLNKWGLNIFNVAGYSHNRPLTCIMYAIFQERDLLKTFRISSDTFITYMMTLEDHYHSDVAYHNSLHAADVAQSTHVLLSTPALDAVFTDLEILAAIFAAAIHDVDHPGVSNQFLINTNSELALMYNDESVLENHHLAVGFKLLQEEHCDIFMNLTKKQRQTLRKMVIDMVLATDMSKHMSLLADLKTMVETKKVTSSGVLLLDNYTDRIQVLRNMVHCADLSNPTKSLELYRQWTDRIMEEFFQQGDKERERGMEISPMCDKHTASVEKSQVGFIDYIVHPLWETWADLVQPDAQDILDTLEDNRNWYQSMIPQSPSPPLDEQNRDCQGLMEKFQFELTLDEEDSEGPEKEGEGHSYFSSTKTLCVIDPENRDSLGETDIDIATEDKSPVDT

Regarding `COCc1nc2c(OC)ccc(C(=O)Nc3c(Cl)cncc3Cl)c2[nH]1`, affinity in [1] was put at a Ki of 25 nM.
Consider `CNc1nc(C(F)(F)F)nc2c(Cc3ccccc3OC)cnn12`, for which the IC50 in data set [2] came out at 11 nM.
The same measure, in the same setting: in the case of `COc1ccc(C(=O)Nc2c(Cl)cncc2Cl)c2cccnc12` it was 170 nM.
For `COc1cccc(-c2cc(Cc3ccncc3)cc3cccnc23)c1`, the IC50 in the data set on Blood (read-out: IC50) stood at 8300 nM. In addition, the peak concentration (Cmax) (as a rule, the highest concentration seen after dosing) in [3] was determined as 200 nM.
As for `Cc1ccccc1-n1c(=O)n(Cc2cccs2)c(=O)c2[nH]cnc21`, the affinity in data set [1], expressed as Ki, was 1020 nM. The IC50 in [2] stood at 4200 nM.
With `COc1ccc(C(=O)Nc2c(Cl)c[n+]([O-])cc2Cl)c2ccc(C(F)(F)F)nc12` [SCH-351591], the IC50 stood at 150 nM in data set [1] and 60 nM in data set [2].
For the compound `CNc1nc(C(F)(F)F)nc2c1ncn2Cc1ccccc1F`, the IC50 was 40000 nM in data set [4], 380000 nM in [5], 5000 nM in [6] and 40 nM in data set [2].
On to `COc1ccc([C@]2(C#N)C[C@H]3C[C@@H](C(=O)O)C[C@H]3C2)cc1OC1CCCC1`, for which the IC50 with Blood (read-out: ID50 (the source's name)) came out at 21000 nM; in data set [2], 9 nM.
In data set [2], `COc1cc2c3c(c1)C(c1ccccc1)=N[C@@H](NC(=O)c1cccnc1)C(=O)N3CC2` had an IC50 of 4300 nM.
As to `Oc1ccc2c(Cc3c(Cl)cncc3Cl)nnc(-c3ccccc3)c2c1`, the IC50 in the data set with Blood (read-out: IC50) was found to be 46 nM; in [2] it was 37 nM. Also, the Ki (usually the equilibrium dissociation constant of an inhibitor or competing ligand from its target) in data set [1] stood at 271 nM. Further, in data set [7], the bioavailability – broadly, dose-corrected exposure relative to a reference, in per cent – was found to be 27%. Besides, the inhibition in vivo (commonly how much of the control response was suppressed) at 30 µmol/kg with Cavia porcellus was determined as 34%.
On to `COc1ccc(C2(Cc3ccncc3)C(=O)N(C(=O)OC(C)(C)C)c3ccccc32)cc1OC1CCCC1` (configuration not stated), for which the affinity in data set [1], expressed as Ki, was 2800 nM. Besides, the IC50 in data set [2] was 700 nM.
For `O=C1CCC(N2C(=O)c3ccccc3C2=O)C(=O)N1` (configuration not stated) [THALIDOMIDE], in the data set on Blood (read-out: IC50), the IC50 was found to be 200000 nM.
`COCc1cc2c(C(=O)Nc3c(Cl)cncc3Cl)ccc(OC)c2o1` registered an IC50 in data set [2] of 0.4 nM.
`COc1ccc(C2CNC(=O)C2)cc1OC1CCCC1` (configuration not stated) [ROLIPRAM] returned a Ki in [8] of 60 nM.
With `O=S(=O)(Nc1cccc(-c2cc(Cc3ccncc3)cc3cccnc23)c1)c1ccccc1`, in the data set on Blood (read-out: IC50), the IC50 turned out to be 7800 nM. Moreover, the maximum concentration (Cmax) in [3] stood at 2000 nM.
`COc1ccc(Cn2cnc(N)c3nc(C(C)(C)OCc4ccsc4)nc2-3)cc1OC1CCCC1`: the Activity in [9], in [10] and in data set [14] was 6 nM throughout. Moreover, the Selectivity ratio in data set [11], in data set [12], in data set [13], in [15], in [16] and in [17] was 20 in each case.
Consider `COc1ccc2c(Cc3c(Cl)cncc3Cl)nnc(-n3cncn3)c2c1`, for which the IC50 in the data set on Blood (read-out: IC50) was determined as 72 nM; in [2], 241 nM. Besides, in data set [1], the Ki came to 383 nM. The compound further returned an inhibition in vivo at 30 µmol/kg in the data set with Cavia porcellus of 34%.
For `COc1ccc(C(CC(N)=O)N2C(=O)c3ccccc3C2=O)cc1OC1CCCC1` (configuration not stated) [CDC-801], the IC50 came out at 2500 nM in the data set on Blood (read-out: IC50) and 1100 nM in data set [2].
In turn, `CCCc1nc(NC)n2ncc(Cc3ccccc3OC)c2n1` came in with an IC50 in [2] of 13 nM.
`COc1ccc(S(=O)(=O)NC2CCc3ccccc32)cc1OC` (configuration not stated): the IC50 in data set [2] was 6000 nM. In [18], the RBA turned out to be 14%.
`CC(C)(Nc1ccc(C(Cc2cc[n+]([O-])cc2)c2ccc(OC(F)F)c(OC(F)F)c2)cc1)c1ccccc1` (configuration not stated) displayed an IC50 in [19] of 0.8 nM.
Compound `Cc1cc2c3c(c1)C(c1ccccc1)=N[C@@H](NC(=O)c1ccncc1)C(=O)N3CC2` displayed an IC50 in data set [2] of 1100 nM.
For `Cn1c(=O)c2[nH]cnc2n(C)c1=O`, the inhibition (in general, the relative decrease from the control value, in per cent) in data set [20] is 39%.
Compound `Cc1noc(/C(=C/c2cccc(-c3cc(C(C)(C)S(C)(=O)=O)cc4cccnc34)c2)c2ccc(S(C)(=O)=O)cc2)n1` displayed an IC50 in data set [2] of 3 nM.
`COc1ccc([C@H](Cc2ccncc2)c2ccccc2)cc1OC1CCCC1` [CDP840] returned a Ki in data set [1] of 16 nM. This compound also displayed an IC50 in [19] of 4.2 nM.

Source of the values: ChEMBL document CHEMBL1157355, “Recent advances on phosphodiesterase 4 inhibitors for the treatment of asthma and chronic obstructive pulmonary disease” (J Med Chem, 2008).
